Measurements reported in PubChem BioAssay (NCI).
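Exposure lasted 48 hours, with cells grown in 96-well plates and compounds tested at five concentrations. The concentration for 50% growth inhibition is given as GI50. TGI denotes the concentration required for complete inhibition of growth.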

Assays:
Assay in all cases: DTP human tumour cell line panel, 48 h
[1] = tested on: CAKI-1 renal
[2] = tested on: HL-60(TB) leukemia
[3] = tested on: HOP-92 NSCLC
[4] = tested on: HT29 colon
[5] = tested on: M14 melanoma
[6] = tested on: MOLT-4 leukemia
[7] = tested on: NCI-H23 lung
[8] = tested on: RPMI-8226 leukemia
[9] = tested on: SF-295 CNS
[10] = tested on: SK-MEL-2 melanoma

Row | Compound | GI50 [1] | TGI [1] | GI50 [2] | TGI [2] | GI50 [3] | TGI [3] | GI50 [4] | GI50 [5] | TGI [5] | GI50 [6] | TGI [6] | GI50 [7] | TGI [7] | GI50 [8] | TGI [8] | GI50 [9] | TGI [9] | GI50 [10] | TGI [10] | TGI [4]
1 | COc1cc([C@@H]2c3cc4c(cc3[C@H](SC(=N)N)[C@H]3COC(=O)[C@H]23)OCO4)cc(OC)c1OC | 0.249 µM | 17.3 µM | 0.25 µM | > 100 µM | 37.1 µM | > 100 µM | 0.217 µM | 0.288 µM | > 100 µM | 0.382 µM | > 100 µM | 0.299 µM | > 100 µM | 0.409 µM | 32 µM | 0.0369 µM | 0.19 µM | 5.78 µM | > 100 µM | 
2 | O=[N+]([O-])c1cccnc1S(=O)(=O)c1ccccc1 |  | 6.98 µM |  | 7.01 µM |  | 3.64 µM |  |  | 22.5 µM |  | > 25.7 µM |  | 30.3 µM |  | 36.4 µM |  | 32.5 µM |  | 31.1 µM | 14.3 µM
3 | CN(C)CCCOc1ccc(NC2=C(Cl)C(=O)C(Nc3ccc(OCCCN(C)C)cc3)=C(Cl)C2=O)cc1 | 1.91 µM | 3.53 µM | 0.732 µM | 2.02 µM | 0.567 µM | 1.08 µM | 0.237 µM | 1.45 µM | 2.9 µM | 0.325 µM | 2.38 µM | 0.292 µM | 1.02 µM | 2.01 µM | 5.22 µM | 1.67 µM | 3.19 µM | 1.66 µM | 3.31 µM | 0.657 µM
4 | CCc1c(OC(C)=O)c2c(NC3OC(COC(C)=O)C(OC(C)=O)C(OC(C)=O)C3OC(C)=O)nc(SC)nc2oc1=O (stereo unspecified) |  | > 100 µM |  | > 100 µM |  | > 100 µM |  |  | > 100 µM |  | > 100 µM |  | > 100 µM |  | > 100 µM |  | > 100 µM |  | > 100 µM | > 100 µM
5 | O=C1C2C(C(=O)N1Cc1ccccc1)N(Cc1ccccc1)C(=O)N2Cc1ccccc1 (stereo unspecified) |  | > 100 µM |  | > 100 µM |  | > 100 µM |  |  | > 100 µM |  | > 100 µM |  | > 100 µM |  | > 100 µM |  | > 100 µM |  |  | > 100 µM
6 | CCCCCCCCCCCCCCCC(=O)OCC1OC(n2cc(F)c(=O)[nH]c2=O)C(NC(=O)OCc2ccccc2)C(O)C1O (stereo unspecified) |  | 33.8 µM |  | 43.1 µM |  | 31.5 µM |  |  | 33.1 µM |  | 38.3 µM |  | 43.6 µM |  | 39.3 µM |  | 32.5 µM |  | 32 µM | 36.2 µM
7 | CC(=O)Nc1cccc(C#Cc2cncnc2Nc2ccc(OCc3cccc(F)c3)c(Cl)c2)c1 | 3.3 µM | > 25 µM | 7.59 µM | > 25 µM | 4.05 µM | > 22.5 µM | 7.89 µM | 10.8 µM | > 25 µM | 6.82 µM | > 25 µM | 10.6 µM | > 25 µM | 12.7 µM | > 25 µM | 6.47 µM | > 25 µM | 6.43 µM | > 22.8 µM | > 25 µM
8 | C[n+]1cn(CC(=O)c2ccccc2)c(C(N)=O)c1N |  | > 100 µM |  | > 100 µM |  | > 100 µM |  |  | > 100 µM |  | > 100 µM |  | > 100 µM |  | > 100 µM |  | > 100 µM |  | > 100 µM | > 100 µM
9 | C/C(=N\NC(=S)N1CCC1)c1ccccn1 |  | 75.3 µM | 0.0045 µM | 3.57 µM | 0.0351 µM | 47.9 µM | 0.00471 µM | 0.0229 µM | 1.84 µM | 0.00601 µM | > 10.5 µM | 0.00622 µM | 39.7 µM | 0.00499 µM | > 63.5 µM | 0.0285 µM | 49.2 µM |  | 33.3 µM | 34.5 µM
10 | O=C([O-])c1ccc([I+]c2ccccc2)cc1 |  | > 100 µM |  | > 100 µM |  | > 100 µM |  |  | > 100 µM |  | > 100 µM |  | > 100 µM |  | > 100 µM |  | > 100 µM |  | > 100 µM | > 100 µM
11 | C#COc1cccc(Nc2ncnc3cc(NC(=O)[C@@H](C)Cl)ccc23)c1 | 10.2 µM | > 62.5 µM | 2.02 µM | 8.25 µM | > 62.5 µM | > 62.5 µM | 2.41 µM | 3.92 µM | > 62.5 µM | 4.29 µM | > 62.5 µM | 17.2 µM | > 62.5 µM | 13.8 µM | > 62.5 µM | 8.22 µM | 61.2 µM | 5.24 µM | > 62.5 µM | > 62.5 µM
12 | CCc1ccc(Oc2c(-c3ccc(OCc4ccc(Cl)cc4)cc3O)nn(C)c2C(F)(F)F)cc1 | 2.09 µM | 7.25 µM | 1.42 µM | 3.62 µM | 0.324 µM | 1.77 µM | 0.58 µM | 1.17 µM | 2.68 µM | 0.565 µM | 2.93 µM | 0.376 µM | 1.74 µM | 0.505 µM | 3.6 µM | 0.947 µM | 2.51 µM | 1.02 µM | 2.63 µM | 2.11 µM
13 | O=c1c2ccccc2nc(-c2cccc(Cl)c2)n1NC1OC(CO)C(O)C(O)C1O (stereo unspecified) |  | > 100 µM |  | > 100 µM |  | > 100 µM |  |  | > 100 µM |  | > 100 µM |  | > 100 µM |  | > 100 µM |  | > 100 µM |  | > 100 µM | > 100 µM
14 | CCOC(=O)C[C@@]12CCCN[C@]1(C)CCc1ccccc12 |  | > 100 µM |  | > 100 µM |  | > 100 µM |  |  | > 100 µM |  | > 100 µM |  | > 100 µM |  | > 100 µM |  | > 100 µM |  | > 100 µM | > 100 µM
15 | COc1ccc(-c2cnc(-c3ccncc3-c3cccc(OC)c3)o2)cc1 | 0.866 µM | 33 µM | 0.024 µM | 0.0968 µM | 0.403 µM | 20.2 µM | 0.033 µM | 0.0304 µM | 14.2 µM | 0.0617 µM | 17.2 µM | 0.0383 µM | 13 µM | 0.0387 µM | 5.75 µM | 0.0294 µM | 13.8 µM | 0.0397 µM | 15.2 µM | 10.3 µM
16 | Cc1nc2sccn2c1C(=O)NNC(N)=S |  | > 100 µM |  | > 100 µM |  | > 100 µM |  |  |  |  | > 100 µM |  | > 100 µM |  | > 100 µM |  | > 100 µM |  | > 100 µM | > 100 µM
17 | Cc1ccc2ccc3c4ccccc4ccc3c2c1 | 20.9 µM | 63.7 µM | 23.8 µM | 60.5 µM | 12.7 µM | 43.9 µM | 22.9 µM | 28.6 µM | > 100 µM | 21.2 µM | 57.6 µM | 22.4 µM | 96.5 µM | 21 µM | 59.2 µM |  |  | 19 µM | 41.8 µM | 77.7 µM
18 | O=C1c2cccc3c(N4CCOCC4)ccc(c23)C(=O)N1CCN1CCN(CCCCCN2CCN(CCN3C(=O)c4cccc5c(N6CCOCC6)ccc(c45)C3=O)CC2)CC1 | > 100 µM | > 100 µM | 33.7 µM | > 100 µM | 76.6 µM | > 100 µM | 58 µM | > 100 µM | > 100 µM |  |  | 99.8 µM | > 100 µM | 23.2 µM | > 100 µM | 72 µM | > 100 µM |  |  | > 100 µM
19 | CC(C)c1ccc(Cc2ccc(C(C)C)c(NC(=O)C(=O)Cc3cnc4ccccc4n3)c2C(C)C)c(C(C)C)c1NC(=O)C(=O)Cc1cnc2ccccc2n1 |  | > 100 µM |  | > 100 µM |  | 91.8 µM |  |  | > 100 µM |  | > 100 µM |  |  |  | > 100 µM |  | > 100 µM |  | > 100 µM | 
20 | Nc1nc(-c2ccccc2)c(CC(=O)O)s1 |  | > 100 µM |  | 83.1 µM |  | > 100 µM |  |  | > 100 µM |  | > 100 µM |  |  |  | > 100 µM |  | > 100 µM |  | > 100 µM | > 100 µM
21 | O=c1[nH]c2ccccc2cc1-c1nnc(Cc2ccccc2)o1 | 3.65 µM | 14.4 µM | 3.43 µM | 21.2 µM | 3.34 µM | 15.3 µM | 3.78 µM | 3.16 µM | 15.2 µM | 2.67 µM | 9.22 µM | 11.3 µM | 39.5 µM | 1.94 µM | 6.67 µM | 11.2 µM | 32.2 µM |  |  | 12.9 µM
22 | C#Cc1cccc(NC(=O)/C=C\C(=O)O)c1 |  | > 100 µM |  | > 100 µM |  | > 100 µM |  |  |  |  | > 100 µM |  | > 100 µM |  | > 100 µM |  | > 100 µM |  | > 100 µM | > 100 µM
23 | O=C(Nc1nc(=S)[nH][nH]1)C(=O)C(c1cnc2ccc([N+](=O)[O-])cc2n1)[N+](=O)[O-] (stereo unspecified) |  | > 100 µM |  | > 100 µM |  | > 100 µM |  |  | > 100 µM |  | > 100 µM |  | > 100 µM |  | > 100 µM |  | > 100 µM |  |  | > 100 µM
24 | CC(C)(C)C1=NO[C@H]2[C@@H](NC(=O)c3ccccc3)CC[C@@H]12 |  | > 100 µM |  | > 100 µM |  | > 100 µM |  |  | > 100 µM |  | > 100 µM |  | > 100 µM |  | > 100 µM |  | > 100 µM |  |  | > 100 µM
